Source: PubChem BioAssay (NCI)
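The compound was tested at five concentrations on cells cultured in 96-well plates, with a 48-hour exposure period. TGI marks complete inhibition of growth.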

Experiments:
Assay in all cases: NCI-60 cell line screen, 48 h
[1] = tested on: A498 renal
[2] = tested on: ACHN renal
[3] = tested on: BT-549 breast
[4] = tested on: CCRF-CEM leukemia
[5] = tested on: DU-145 prostate
[6] = tested on: HCT-116 colon
[7] = tested on: HL-60(TB) leukemia
[8] = tested on: K-562 leukemia
[9] = tested on: KM12 colon
[10] = tested on: MDA-MB-231 breast
[11] = tested on: MDA-N
[12] = tested on: MOLT-4 leukemia
[13] = tested on: NCI-H226 lung
[14] = tested on: PC-3 prostate
[15] = tested on: RPMI-8226 leukemia
[16] = tested on: SN12C renal
[17] = tested on: SNB-19 CNS
[18] = tested on: SR leukemia
[19] = tested on: T-47D breast
[20] = tested on: UO-31 renal
[21] = tested on: 786-0 renal
[22] = tested on: A549 NSCLC
[23] = tested on: CAKI-1 renal
[24] = tested on: COLO 205 colon
[25] = tested on: EKVX NSCLC
[26] = tested on: HCC-2998 colon
[27] = tested on: HCT-15 colon
[28] = tested on: HOP-62 NSCLC
[29] = tested on: HOP-92 NSCLC
[30] = tested on: HS 578T breast
[31] = tested on: HT29 colon
[32] = tested on: IGROV1 ovarian
[33] = tested on: LOX IMVI melanoma
[34] = tested on: M14 melanoma
[35] = tested on: MALME-3M melanoma
[36] = tested on: MCF7 breast
[37] = tested on: MDA-MB-435
[38] = tested on: NCI-H23 lung
[39] = tested on: NCI-H460 lung
[40] = tested on: NCI-H522 lung
[41] = tested on: NCI/ADR-RES ovarian
[42] = tested on: OVCAR-3 ovarian
[43] = tested on: OVCAR-4 ovarian
[44] = tested on: OVCAR-5 ovarian
[45] = tested on: OVCAR-8 ovarian
[46] = tested on: RXF 393 renal
[47] = tested on: SF-268 CNS
[48] = tested on: SF-295 CNS
[49] = tested on: SF-539 CNS
[50] = tested on: SK-MEL-2 melanoma
[51] = tested on: SK-MEL-28 melanoma
[52] = tested on: SK-MEL-5 melanoma
[53] = tested on: SNB-75 CNS
[54] = tested on: SW-620 colon
[55] = tested on: TK-10 renal
[56] = tested on: U251 CNS
[57] = tested on: UACC-257 melanoma
[58] = tested on: UACC-62 melanoma

With c1ccc2c(c1)Nc1cccc3c1c-2nc1ccccc13 the TGI [1] was over 100 µM, the TGI [2] was 2.01 µM and the TGI [3] was over 100 µM. The TGI [4] was 4.81 µM, the TGI [5] was 2.6 µM and the TGI [6] was 1.79 µM. For the same compound, the TGI [7] was 3.3 µM, the TGI [8] was 2.92 µM and the TGI [9] was 3.44 µM. For the same compound, the TGI [10] was 2.69 µM, the TGI [11] was 2.05 µM and the TGI [12] was 1.78 µM. The TGI [13] was over 100 µM, the TGI [14] was 2.43 µM and the TGI [15] was 3.48 µM. It also gave a TGI [16] of 2.79 µM, a TGI [17] of over 100 µM and a TGI [18] of 4.83 µM. It also gave a TGI [19] of 5.09 µM and a TGI [20] of 2.83 µM.

With COc1ccc(C2c3cc4c(cc3OC(N3CCOCC3)C2C)OCO4)cc1 (stereo unspecified) the TGI [21] was over 100 µM, the TGI [1] was 34.8 µM and the TGI [22] was over 90.6 µM. For the same compound, the TGI [2] was over 100 µM, the TGI [3] was over 100 µM and the TGI [23] was 55.1 µM. The TGI [4] was over 78.2 µM, the TGI [24] was over 100 µM and the TGI [5] was over 100 µM. For the same compound, the TGI [25] was over 100 µM, the TGI [26] was 67 µM and the TGI [6] was over 100 µM. It also gave a TGI [27] of over 100 µM, a TGI [7] of 91.2 µM and a TGI [28] of over 72.2 µM. For the same compound, the TGI [29] was 58.2 µM, the TGI [30] was 63 µM and the TGI [31] was over 67.6 µM. The TGI [32] was over 100 µM, the TGI [8] was over 31.6 µM and the TGI [9] was over 100 µM. It also gave a TGI [33] of over 79.5 µM, a TGI [34] of over 89 µM and a TGI [35] of 40.7 µM. The TGI [36] was over 71.5 µM, the TGI [37] was over 60.4 µM and the TGI [11] was over 82 µM. It also gave a TGI [12] of over 31.6 µM, a TGI [38] of over 100 µM and a TGI [39] of over 100 µM. The TGI [40] was over 82 µM, the TGI [41] was over 91.2 µM and the TGI [42] was over 86.1 µM. It also gave a TGI [43] of over 100 µM, a TGI [44] of over 87.5 µM and a TGI [45] of over 100 µM. The TGI [14] was over 100 µM, the TGI [15] was 61.7 µM and the TGI [46] was 63.3 µM. The TGI [47] was over 100 µM, the TGI [48] was 67.5 µM and the TGI [49] was 68.6 µM. For the same compound, the TGI [50] was over 71 µM, the TGI [51] was over 88 µM and the TGI [52] was 72.4 µM. The TGI [16] was over 100 µM, the TGI [17] was over 96.7 µM and the TGI [53] was over 100 µM. It also gave a TGI [18] of over 76.1 µM, a TGI [54] of over 100 µM and a TGI [19] of 61.6 µM. It also gave a TGI [55] of over 100 µM, a TGI [56] of 68.1 µM and a TGI [57] of over 100 µM. For the same compound, the TGI [58] was over 95.6 µM and the TGI [20] was over 100 µM.
